Patent US10072003B2, “Tetrahydronaphthyridine derivatives as mGluR2-negative allosteric modulators, compositions, and their use” (Merck Sharp & Dohme Corp., priority 2014, dated 2018)

molecular target: recombinant human mGluR2 (Homo sapiens (Human), UniProt Q14416); test: FLIPR Ca2+ mobilization antagonist assay in CHO dhfr- cells expressing human mGluR2 and Gα16; type: cell-based; settings: antagonist response after addition of 2,500 nM glutamate, Fluo-4 AM, FLIPR384
Outline: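 CHO dhfr- cells stably co-expressing human mGluR2 and Gα16, Fluo-4 AM loaded, preincubated with compound, then challenged with 2,500 nM glutamate; Ca2+ response read by FLIPR. Maximum calcium response vs concentration fitted to four-parameter logistic for IC50.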

Sequence of recombinant human mGluR2 (Q14416 19-872): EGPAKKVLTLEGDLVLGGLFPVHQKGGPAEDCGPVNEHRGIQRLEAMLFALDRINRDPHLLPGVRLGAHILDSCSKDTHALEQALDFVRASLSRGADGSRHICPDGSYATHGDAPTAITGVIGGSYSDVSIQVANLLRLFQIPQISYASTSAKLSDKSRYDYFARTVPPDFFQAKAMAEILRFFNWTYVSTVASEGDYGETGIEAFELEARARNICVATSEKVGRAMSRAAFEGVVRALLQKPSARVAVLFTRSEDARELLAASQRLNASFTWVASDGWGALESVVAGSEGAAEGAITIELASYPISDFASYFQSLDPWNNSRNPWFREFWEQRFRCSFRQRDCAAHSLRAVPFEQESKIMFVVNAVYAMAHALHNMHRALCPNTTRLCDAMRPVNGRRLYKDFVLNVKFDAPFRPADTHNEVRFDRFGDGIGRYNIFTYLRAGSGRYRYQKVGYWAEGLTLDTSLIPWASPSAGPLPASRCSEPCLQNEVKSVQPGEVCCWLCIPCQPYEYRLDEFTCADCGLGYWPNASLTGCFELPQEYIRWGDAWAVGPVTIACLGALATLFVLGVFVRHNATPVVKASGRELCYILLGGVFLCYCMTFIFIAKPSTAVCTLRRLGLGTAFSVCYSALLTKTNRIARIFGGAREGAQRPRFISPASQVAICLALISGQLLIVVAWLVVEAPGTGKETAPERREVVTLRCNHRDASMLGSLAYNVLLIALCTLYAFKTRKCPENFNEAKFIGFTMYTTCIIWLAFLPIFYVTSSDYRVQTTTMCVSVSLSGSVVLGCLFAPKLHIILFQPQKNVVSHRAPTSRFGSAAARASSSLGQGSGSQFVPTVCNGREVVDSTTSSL

Structure (SMILES)	IC50 [nM]
COc1cc(CN2CCc3c(-c4ccc(F)cc4F)cc(C(N)=O)nc3C2)ccn1 [Example 13-1, 4-(2,4-difluorophenyl)-7-((2-methoxypyridin-4-yl)methyl)-5,6,7,8-tetrahydro-1,7-naphthyridine-2-carboxamide]	7.8
NC(=O)c1cc(-c2c(F)cc(F)cc2F)c2c(n1)CN(Cc1cc(C(F)(F)F)ncn1)CC2 [Example 11-11, 7-{[6-(trifluoromethyl)pyrimidin-4-yl]methyl}-4-(2,4,6-trifluorophenyl)-5,6,7,8-tetrahydro-1,7-naphthyridine-2-carboxamide]	26.1
Cc1nonc1CN1CCc2c(-c3ccc(F)cc3F)cc(C(N)=O)nc2C1 [Example 2-7, 4-(2,4-difluorophenyl)-7-[(4-methyl-1,2,5-oxadiazol-3-yl)methyl]-5,6,7,8-tetrahydro-1,7-naphthyridine-2-carboxamide]	7.6
NC(=O)c1cc(-c2cnc(C(F)F)s2)c2c(n1)CN(Cc1ccnc(OC(F)F)c1)CC2 [Example 2-15, 7-{[2-(difluoromethoxy)pyridin-4-yl]methyl}-4-[2-(difluoromethyl)-1,3-thiazol-5-yl]-5,6,7,8-tetrahydro-1,7-naphthyridine-2-carboxamide]	45.2
CC1(C)CCC(c2cc(C(N)=O)nc3c2CCN(Cc2ccnc(C(F)(F)F)c2)C3)CC1 [Example 4-1, 4-(4,4-dimethylcyclohexyl)-7-((2-(trifluoromethyl)pyridin-4-yl)methyl)-5,6,7,8-tetrahydro-1,7-naphthyridine-2-carboxamide]	117
CC(c1ccnn1C)N1CCc2c(-c3ccc(F)cc3F)cc(C(N)=O)nc2C1 (single isomer, unassigned) [Example 7-4, (S) or (R)-4-(2,4-difluorophenyl)-7-[(1S)-1-(1-methyl-1H-pyrazol-5-yl)ethyl]-5,6,7,8-tetrahydro-1,7-naphthyridine-2-carboxamide]	20.1
NC(=O)c1cc(-c2c(F)cccc2F)c2c(n1)CN(Cc1ccnc(C(F)(F)F)n1)CC2 [Example 11-1, 4-(2,6-Difluorophenyl)-7-((2-(trifluoromethyl)pyrimidin-4-yl)methyl)-5,6,7,8-tetrahydro-1,7-naphthyridine-2-carboxamide]	25.8
Cn1cncc1CN1CCc2c(-c3ccc(Cl)cc3F)cc(C(N)=O)nc2C1 [Example 1-16, 4-(4-chloro-2-fluorophenyl)-7-[(1-methyl-1H-imidazol-5-yl)methyl]-5,6,7,8-tetrahydro-1,7-naphthyridine-2-carboxamide]	14.1
CC1(C)CCC(CN2CCc3c(-c4ccc(Cl)cc4F)cc(C(N)=O)nc3C2)CO1 (single isomer, unassigned) [Example 1-21, (S) or (R)-4-(4-chloro-2-fluorophenyl)-7-[(6,6-dimethyltetrahydro-2H-pyran-3-yl)methyl]-5,6,7,8-tetrahydro-1,7-naphthyridine-2-carboxamide]	9.3
